Assay [1] can be described thus: Moderation of outcome by left amygdala PPI task-related connectivity. The format is in vivo, human. The protocol: Context-dependent connectivity analyses were conducted using the generalized PPI toolbox^1. A “seed” region was defined volumetrically using an anatomical region of interest mask of the left and right amygdala. Each amygdala mask was then deformed from Montereal Neurological Institute standard space into the participant's native anatomical space using the inverse warp parameter determined during spatial normalization of the preprocessing stage. […] The interaction of the time series of behavioral parameters of interest, i.e. the task conditions utilized in the first-level activation analysis, with the deconcolved “neuronal” time series were calculated for each task condition of interest, thus producing a fully specified statistical model modeling the interaction of each task condition with the observed BOLD time series (a psychophysiological interaction). […] The first-level beta weights for the contrasts of conditions of interest were then calculated on the individual level, and individual-level generalized PPI beta maps were then carried to a second level linear mixed model analysis conducted in R using the fmri^2 and nlme^3 packages to assess voxelwise task-dependent connectivity moderation effects (as in the activation analyses).

Assay [2] can be described thus: EMBARC randomized trial, sertraline versus placebo, HAMD17 outcome. To be noted: all patients. The format is in vivo, human.
Excerpt: Assessments and treatment protocol: The primary clinical outcome was total scores on the Hamilton Rating Scale for Depression 17-item (HAMD17)^24,25, administered at each study visit (baseline, week 1, week 2, week 3, week 4, week 6, and week 8).
Key eligibility for the study included being 18-65 years old, having major depression as a primary diagnosis by the Structured Clinical Interview for DSM-IV Axis I Disorders^1, at least moderate depression severity with a score≥14 on the Quick Inventory of Depressive Symptomatology-Self Report (QIDS-SR) at screening and randomization, a major depressive episode beginning before age 30, either a chronic recurrent episode (duration≥2 years) or recurrent MDD (at least 2 lifetime episodes), and no antidepressant failure during the current episode. […] In addition, 40 healthy individuals who were medically and psychiatrically healthy, were recruited across the four sites, and assessed in a similar manner as the patients. […]
For assay [3] the following is noted: for endpoint symptom difference Cohen's d / remission NNT: below median iI-cI activation.
Excerpt: fMRI task and acquisition parameters: The emotional conflict task is a well-characterized paradigm^17,18, that induces emotional conflict through pairing fearful and happy faces with overlaid congruent or incongruent emotion words (participants identify facial expression using a keypad).
fMRI preprocessing and first-level modeling: For the emotional conflict task, the contrasts of interest were incongruent versus congruent trials (conflict) and post-incongruent incongruent trials versus post-congruent incongruent trials (an established measure of conflict regulation)^11,13,17,18.
Statistical analyses: All moderation analyses were conducted under an intention-to-treat framework, incorporating all randomized patients after removing those with excessive head motion or low task accuracy. As such, we employed linear mixed models both for the voxelwise neuroimaging data, as well as follow-up analyses on extracted brain signals, while fully controlling for any potential differences due to site of acquisition. Whole-brain voxelwise correction for multiple comparisons was performed at p<0.05 based on the false discovery rate.
Emotional conflict task: This well-characterized paradigm assesses both emotional conflict and emotional conflict regulation^3,4. Each trial involved presentation of an emotional face with either a fearful or happy expression, drawn from the set of Ekman & Friesen^5, with an overlaid emotion word (“FEAR” or “HAPPY”). Participants were instructed to identify the facial emotion with a key press, while trying to ignore the emotion word. The task consisted of 148 trials, with stimuli presented for 1000 milliseconds (ms) in a fast event-related design. Interstimulus intervals were 3000-5000 ms in a pseudo-randomized order counterbalanced for facial expression, gender, word, and response button. Stimuli were either congruent (e.g. fearful face with “FEAR”) or incongruent (e.g. fearful face with “HAPPY”), and stimuli were furthermore balanced to achieve an equal fraction of current and prior trial congruency, while ensuring no direct stimulus repetitions. Prior to performance of the task during neuroimaging, all participants underwent a practice version to ensure task proficiency was reached (minimum 80% accuracy) and the task instructions were understood. The neuroimaging task lasted 13 minutes and 14 seconds.
We constrained analyses to a search space defined by a whole-brain mask constructed from: a) a 30% probabilistic voxelwise threshold derived from spatially normalized, segmented binary gray matter images from an independent sample of healthy comparison participants^9,10; and b) a conjunction map of adequate signal coverage across study scanners constructed by concatenating the binarized individual-level average map of all task experimental conditions within participants acquired at each scanner, thresholding at a minimum of 50% coverage within each scanner sample, and then conjoining these maps across all scanners. Thus, the final search space was a function of both adequate signal coverage across all study scanners as well as a probabilistic assignment to the brain's gray matter. At each voxel within this search space, the moderating effect of baseline brain activation (mean-centered) was examined using a longitudinal linear mixed model implemented in the nlme R package.^14 Modeled effects included a random and fixed intercept, fixed effects of time, time×treatment arm, 4 mean-centered, dummy-coded scanner variables corresponding to: a) Columbia University scanner 1 vs. UT Southwestern scanner; b) Columbia University scanner 2 vs. UT Southwestern scanner; c) Massachusetts General Hospital scanner vs. UT Southwestern scanner; and d) University of Michigan scanner vs. UT Southwestern scanner, treatment arm×time×brain activation, and all model variables in interaction with each of the 4 site variables.

Read-outs that look alike come from different tables or passages of the source.

With `CN[C@H]1CC[C@@H](c2ccc(Cl)c(Cl)c2)c2ccccc21` [sertraline], in assay [1] (left amygdala PPI connectivity to dorsal anterior cingulate above median), the “symptom change with sertraline versus placebo” value was “failed to show any difference”. The “symptom change with sertraline compared to placebo” value in assay [1] (left amygdala PPI connectivity to dorsal anterior cingulate below median) is listed as “steep decline in symptoms”. For the same compound, in assay [2] (HAMD17, linear mixed model, 8 weeks), the “endpoint symptom reduction with sertraline versus placebo, Cohen's d” value is on record as 0.24. The “remission number needed to treat (NNT)” value in assay [2] (sertraline versus placebo) is recorded as 20.1. Also, the entries for the “endpoint symptom difference Cohen's d” value in assay [3] (anterior insula), in assay [3] (dorsal anterior cingulate) and in assay [3] (frontopolar cortex) were 0.53, 0.79 and 0.85, respectively. Also, the “remission NNT” value in assay [3] (anterior insula) turned out to be 6.3; in assay [3] (dorsal anterior cingulate) it was 3; in assay [3] (frontopolar cortex) it was 2.9. In addition, the “benefit of sertraline over placebo” value in assay [3] (patients in bottom half of emotion-regulation capacity) and in assay [3] (patients in bottom quartile of emotional conflict regulatory ability) was “no benefit” throughout. In assay [3] (patients in top half of emotion-regulation capacity), the “number needed to treat” value is reported as below 5. Besides, the “number needed to treat versus placebo” value in assay [3] (patients in top quartile of emotional conflict regulatory ability) is recorded as below 4.
